According to ChEMBL document CHEMBL5096233, “Phenotypic Discovery of Triazolo[1,5-c]quinazolines as a First-In-Class Bone Morphogenetic Protein Amplifier Chemotype” (J Med Chem, 2022):
Active and inactive are the calls of the source. The rule behind the calls is not given here.

Assays:
C2C12 [1] = assay: Induction of osteogenic differentiation in mouse C2C12 cells assessed as ALP activity preincubated with compound in the presence of BMP-4 for 72 hrs followed by substrate addition and measured after 1 hrs by luminescence based assay; type: functional, cell-based; conditions: time 73.0 hrs
HEK293T = assay: Activation of BMP signaling in HEK293T cells expressing BRE-Vent2 luciferase reporter gene assessed as BRE activation by measuring increase in luciferase activity measured after 22 hrs in the presence of BMP-4 by dual-luciferase assay; type: cell-based; conditions: Homo sapiens, filed as activator
[2] = molecular target: T1, Phosphatidylinositol 4,5-bisphosphate 3-kinase catalytic subunit gamma isoform (Homo sapiens, UniProt P48736); assay: Inhibition of PI3Kgamma (unknown origin) at 10 uM relative to control
Target sequence in this assay (P48736 whole entry, looked up, canonical isoform): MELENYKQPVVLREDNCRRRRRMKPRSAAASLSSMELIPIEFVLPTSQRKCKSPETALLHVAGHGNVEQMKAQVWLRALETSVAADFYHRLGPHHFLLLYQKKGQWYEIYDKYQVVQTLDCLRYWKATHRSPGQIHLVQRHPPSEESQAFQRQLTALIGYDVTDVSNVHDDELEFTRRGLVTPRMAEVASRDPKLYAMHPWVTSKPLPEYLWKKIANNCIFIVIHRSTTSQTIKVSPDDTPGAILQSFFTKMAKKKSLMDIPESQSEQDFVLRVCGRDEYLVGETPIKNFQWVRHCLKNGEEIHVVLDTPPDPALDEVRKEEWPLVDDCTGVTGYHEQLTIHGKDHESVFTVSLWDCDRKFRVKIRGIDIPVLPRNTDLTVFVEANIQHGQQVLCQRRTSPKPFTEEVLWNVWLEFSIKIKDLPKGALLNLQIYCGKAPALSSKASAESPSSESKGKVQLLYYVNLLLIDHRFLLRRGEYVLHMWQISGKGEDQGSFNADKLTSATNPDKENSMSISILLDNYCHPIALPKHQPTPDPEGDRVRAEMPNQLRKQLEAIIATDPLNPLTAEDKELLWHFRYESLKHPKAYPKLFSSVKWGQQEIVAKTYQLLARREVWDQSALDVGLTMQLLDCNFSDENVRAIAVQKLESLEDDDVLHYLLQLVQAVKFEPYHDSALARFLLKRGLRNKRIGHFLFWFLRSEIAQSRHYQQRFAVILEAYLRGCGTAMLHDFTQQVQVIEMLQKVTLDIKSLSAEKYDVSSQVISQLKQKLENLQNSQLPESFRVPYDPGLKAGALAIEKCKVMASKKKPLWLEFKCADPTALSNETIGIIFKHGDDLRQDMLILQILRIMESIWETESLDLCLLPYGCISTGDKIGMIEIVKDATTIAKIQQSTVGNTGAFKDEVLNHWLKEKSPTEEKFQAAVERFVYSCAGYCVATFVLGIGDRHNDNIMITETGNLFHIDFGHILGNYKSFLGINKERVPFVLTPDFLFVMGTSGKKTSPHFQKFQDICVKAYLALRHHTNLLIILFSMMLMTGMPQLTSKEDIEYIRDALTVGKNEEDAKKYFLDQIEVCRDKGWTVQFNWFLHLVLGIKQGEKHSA

[3] = molecular target: T2, Phosphatidylinositol 4,5-bisphosphate 3-kinase catalytic subunit delta isoform (Homo sapiens) (UniProt O00329); assay: Inhibition of PI3Kdelta (unknown origin) at 10 uM relative to control
T2 sequence (whole entry): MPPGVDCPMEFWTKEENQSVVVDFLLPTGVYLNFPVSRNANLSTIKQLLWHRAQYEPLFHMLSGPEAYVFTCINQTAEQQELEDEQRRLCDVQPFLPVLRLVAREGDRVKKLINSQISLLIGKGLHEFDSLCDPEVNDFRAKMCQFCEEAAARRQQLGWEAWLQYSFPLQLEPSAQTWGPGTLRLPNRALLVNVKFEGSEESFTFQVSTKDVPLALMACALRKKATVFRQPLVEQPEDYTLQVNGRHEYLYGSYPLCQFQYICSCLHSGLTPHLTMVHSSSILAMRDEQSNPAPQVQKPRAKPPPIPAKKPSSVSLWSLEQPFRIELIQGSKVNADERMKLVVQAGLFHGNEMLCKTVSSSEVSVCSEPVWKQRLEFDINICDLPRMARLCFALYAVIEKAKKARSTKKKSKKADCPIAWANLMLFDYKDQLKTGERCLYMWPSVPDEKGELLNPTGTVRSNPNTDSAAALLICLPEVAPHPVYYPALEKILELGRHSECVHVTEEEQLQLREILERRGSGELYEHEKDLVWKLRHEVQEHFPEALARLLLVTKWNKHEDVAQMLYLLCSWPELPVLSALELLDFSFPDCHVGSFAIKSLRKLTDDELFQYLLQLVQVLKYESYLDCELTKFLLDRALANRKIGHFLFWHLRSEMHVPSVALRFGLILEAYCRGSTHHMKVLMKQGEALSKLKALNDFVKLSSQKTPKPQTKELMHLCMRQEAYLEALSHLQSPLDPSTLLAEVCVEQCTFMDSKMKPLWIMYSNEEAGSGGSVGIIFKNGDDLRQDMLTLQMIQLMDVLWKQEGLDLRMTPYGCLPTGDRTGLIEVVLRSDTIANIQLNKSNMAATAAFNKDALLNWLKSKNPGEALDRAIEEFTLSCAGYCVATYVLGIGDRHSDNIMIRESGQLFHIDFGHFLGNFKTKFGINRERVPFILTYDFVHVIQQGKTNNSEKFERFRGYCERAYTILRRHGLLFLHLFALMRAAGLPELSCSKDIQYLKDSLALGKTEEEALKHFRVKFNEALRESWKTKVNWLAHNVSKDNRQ

[4] = molecular target: Casein kinase I isoform delta (Homo sapiens, UniProt P48730); assay: Inhibition of CK1delta (unknown origin)
[5] = molecular target: Casein kinase I isoform alpha (Homo sapiens, UniProt P48729); assay: Inhibition of CK1alpha (unknown origin)
[6] = molecular target: Casein kinase I isoform epsilon (Homo sapiens, UniProt P49674); assay: Inhibition of CK1epsilon (unknown origin)
C2C12 [7] = assay: Induction of osteogenic differentiation in mouse C2C12 cells assessed as ALP activity at 5 uM preincubated with compound in the presence of BMP-4 for 72 hrs followed by substrate addition and measured after 1 hrs by luminescence based assay relative to control; type: functional; conditions: time 73 hrs
[8] = molecular target: T3, Phosphatidylinositol 4,5-bisphosphate 3-kinase catalytic subunit beta isoform (Homo sapiens, UniProt P42338); assay: Inhibition of PI3Kbeta (unknown origin) at 10 uM relative to control
[9] = molecular target: T4, Phosphatidylinositol 4,5-bisphosphate 3-kinase catalytic subunit alpha isoform (Homo sapiens, UniProt P42336); assay: Inhibition of PI3Kalpha (unknown origin) at 10 uM relative to control
[10] = molecular target: Phosphatidylinositol 3-kinase catalytic subunit type 3 (Homo sapiens) (UniProt Q8NEB9); assay: Inhibition of VPS34 (unknown origin) at 10 uM relative to control
C2C12 [11] = assay: Induction of osteogenic differentiation in mouse C2C12 cells assessed as ALP activity preincubated with compound in the presence of BMP-4 for 72 hrs followed by substrate addition and measured after 1 hrs in the presence of BYL719 by luminescence based assay; type: functional, cell-based; conditions: time 73.0 hrs, DDE = dose-dependent effect
C2C12 [12] = assay: Induction of osteogenic differentiation in mouse C2C12 cells assessed as ALP activity preincubated with compound in the presence of BMP-4 for 72 hrs followed by substrate addition and measured after 1 hrs in the presence of PIK93 by luminescence based assay; type: functional, cell-based; conditions: time 73.0 hrs, DDE = dose-dependent effect
[13] = molecular target: T5, Phosphatidylinositol 4,5-bisphosphate 3-kinase catalytic subunit delta isoform (Homo sapiens, UniProt O00329); assay: Inhibition of PI3Kdelta (unknown origin)
T5 sequence (O00329 whole entry): T2 sequence (whole entry)

[14] = Inhibition of DMH-1 induced cardiogenesis in mouse embryonic stem cells transfected with Myh6-GFP pretreated with compound followed by DMH-1 stimulation for 24 hrs in the presence of BMP-4 with replacement of media on day 7 and 9 and measured after 11 days by DAPI-staining based assay; conditions: embryonic stem cell
[15] = molecular target: T3, Phosphatidylinositol 4,5-bisphosphate 3-kinase catalytic subunit beta isoform; assay: Inhibition of PI3Kbeta (unknown origin)
[16] = molecular target: T1, Phosphatidylinositol 4,5-bisphosphate 3-kinase catalytic subunit gamma isoform; assay: Inhibition of PI3Kgamma (unknown origin)
Target sequence in this assay (P48736 whole entry, canonical isoform): as the sequence (P48736 whole entry, looked up, canonical isoform) above

[17] = molecular target: T4, Phosphatidylinositol 4,5-bisphosphate 3-kinase catalytic subunit alpha isoform; assay: Inhibition of PI3Kalpha (unknown origin)
[18] = molecular target: DNA-dependent protein kinase catalytic subunit (Homo sapiens, UniProt P78527); assay: Inhibition of DNA-PK (unknown origin)

Casein kinase I isoform delta, sequence (P48730 whole entry, canonical isoform): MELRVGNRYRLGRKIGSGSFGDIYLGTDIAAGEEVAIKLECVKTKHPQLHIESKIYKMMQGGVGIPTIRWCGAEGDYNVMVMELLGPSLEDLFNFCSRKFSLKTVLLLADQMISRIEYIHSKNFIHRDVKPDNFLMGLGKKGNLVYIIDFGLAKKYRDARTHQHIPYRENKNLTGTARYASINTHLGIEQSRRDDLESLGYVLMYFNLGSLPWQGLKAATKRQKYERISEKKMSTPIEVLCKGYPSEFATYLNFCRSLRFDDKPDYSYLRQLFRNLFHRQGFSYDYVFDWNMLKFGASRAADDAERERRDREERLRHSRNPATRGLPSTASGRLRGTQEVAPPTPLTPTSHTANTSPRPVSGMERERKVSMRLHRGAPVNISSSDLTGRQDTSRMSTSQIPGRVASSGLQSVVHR
T4 sequence (P42336 whole entry, canonical isoform): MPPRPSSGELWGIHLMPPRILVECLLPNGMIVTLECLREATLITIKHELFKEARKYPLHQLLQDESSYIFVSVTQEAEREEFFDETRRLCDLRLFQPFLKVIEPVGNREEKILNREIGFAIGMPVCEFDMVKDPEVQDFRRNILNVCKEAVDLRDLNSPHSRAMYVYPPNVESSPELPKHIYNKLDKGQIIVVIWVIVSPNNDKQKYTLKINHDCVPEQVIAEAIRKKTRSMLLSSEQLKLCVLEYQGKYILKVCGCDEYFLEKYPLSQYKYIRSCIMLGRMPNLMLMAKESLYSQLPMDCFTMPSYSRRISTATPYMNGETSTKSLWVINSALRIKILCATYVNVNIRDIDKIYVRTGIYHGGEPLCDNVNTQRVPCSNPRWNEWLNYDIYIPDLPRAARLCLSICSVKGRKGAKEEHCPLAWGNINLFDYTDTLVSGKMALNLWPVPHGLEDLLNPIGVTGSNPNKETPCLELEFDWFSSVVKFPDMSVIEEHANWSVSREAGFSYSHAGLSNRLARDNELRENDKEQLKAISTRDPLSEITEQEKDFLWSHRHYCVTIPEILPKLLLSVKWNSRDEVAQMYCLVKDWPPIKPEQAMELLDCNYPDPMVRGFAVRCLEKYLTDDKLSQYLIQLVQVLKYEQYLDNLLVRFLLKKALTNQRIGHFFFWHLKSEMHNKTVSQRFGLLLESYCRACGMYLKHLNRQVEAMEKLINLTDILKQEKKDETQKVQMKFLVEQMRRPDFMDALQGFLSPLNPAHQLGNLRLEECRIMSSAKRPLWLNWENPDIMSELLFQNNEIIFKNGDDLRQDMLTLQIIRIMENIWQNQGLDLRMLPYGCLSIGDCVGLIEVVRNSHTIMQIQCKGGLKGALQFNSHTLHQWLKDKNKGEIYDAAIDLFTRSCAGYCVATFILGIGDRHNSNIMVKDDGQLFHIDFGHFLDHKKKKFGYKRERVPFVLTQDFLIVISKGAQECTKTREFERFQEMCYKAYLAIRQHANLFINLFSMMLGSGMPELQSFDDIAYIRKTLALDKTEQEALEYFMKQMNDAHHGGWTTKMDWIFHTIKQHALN
Casein kinase I isoform epsilon, sequence (P49674 whole entry, canonical isoform): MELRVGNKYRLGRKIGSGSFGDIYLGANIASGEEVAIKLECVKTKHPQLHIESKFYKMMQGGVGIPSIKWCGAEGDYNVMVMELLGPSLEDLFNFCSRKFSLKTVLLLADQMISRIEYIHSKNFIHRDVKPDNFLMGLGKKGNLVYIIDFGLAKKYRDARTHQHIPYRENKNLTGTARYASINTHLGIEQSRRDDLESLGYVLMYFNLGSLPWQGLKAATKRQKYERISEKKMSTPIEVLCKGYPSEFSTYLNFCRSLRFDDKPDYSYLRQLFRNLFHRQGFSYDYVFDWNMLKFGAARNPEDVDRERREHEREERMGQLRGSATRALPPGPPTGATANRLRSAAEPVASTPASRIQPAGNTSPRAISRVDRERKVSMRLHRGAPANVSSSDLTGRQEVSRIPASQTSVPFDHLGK
Phosphatidylinositol 3-kinase catalytic subunit type 3 (Homo sapiens), sequence (Q8NEB9 whole entry): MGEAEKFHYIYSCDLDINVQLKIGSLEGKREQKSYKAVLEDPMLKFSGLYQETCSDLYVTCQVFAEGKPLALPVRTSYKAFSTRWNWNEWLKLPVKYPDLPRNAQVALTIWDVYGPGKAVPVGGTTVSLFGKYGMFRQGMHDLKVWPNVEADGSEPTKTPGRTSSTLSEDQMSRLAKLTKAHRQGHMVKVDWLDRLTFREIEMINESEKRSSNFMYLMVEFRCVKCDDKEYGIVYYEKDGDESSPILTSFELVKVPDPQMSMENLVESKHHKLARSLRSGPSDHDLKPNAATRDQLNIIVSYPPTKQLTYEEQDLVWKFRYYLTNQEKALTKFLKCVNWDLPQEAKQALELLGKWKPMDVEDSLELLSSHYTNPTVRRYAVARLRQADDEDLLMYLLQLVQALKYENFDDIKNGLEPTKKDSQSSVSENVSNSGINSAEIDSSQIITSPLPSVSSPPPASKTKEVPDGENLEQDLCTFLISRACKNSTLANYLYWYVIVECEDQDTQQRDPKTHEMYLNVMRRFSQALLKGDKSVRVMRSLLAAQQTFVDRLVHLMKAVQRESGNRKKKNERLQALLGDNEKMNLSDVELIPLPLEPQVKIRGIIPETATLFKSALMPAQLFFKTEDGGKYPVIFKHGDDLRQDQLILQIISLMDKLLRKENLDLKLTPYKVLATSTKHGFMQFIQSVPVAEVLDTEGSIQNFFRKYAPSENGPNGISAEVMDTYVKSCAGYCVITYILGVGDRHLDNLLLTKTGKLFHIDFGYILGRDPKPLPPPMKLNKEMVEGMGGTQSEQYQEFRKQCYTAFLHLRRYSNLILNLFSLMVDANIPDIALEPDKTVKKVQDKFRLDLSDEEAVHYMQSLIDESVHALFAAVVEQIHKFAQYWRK
Casein kinase I isoform alpha, sequence (P48729 whole entry, canonical isoform): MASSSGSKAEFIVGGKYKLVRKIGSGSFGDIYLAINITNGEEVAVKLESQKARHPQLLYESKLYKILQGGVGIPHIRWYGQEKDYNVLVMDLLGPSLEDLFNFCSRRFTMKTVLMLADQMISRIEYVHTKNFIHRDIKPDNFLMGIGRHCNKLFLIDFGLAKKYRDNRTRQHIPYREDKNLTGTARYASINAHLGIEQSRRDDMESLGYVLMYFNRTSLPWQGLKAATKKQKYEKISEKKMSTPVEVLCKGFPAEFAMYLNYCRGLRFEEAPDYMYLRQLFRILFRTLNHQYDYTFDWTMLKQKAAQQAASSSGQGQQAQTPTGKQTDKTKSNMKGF

| SMILES | Activity (C2C12 [1]) | Activity (HEK293T) | inhibition [2] [%] | inhibition [3] [%] | IC50 [4] [nM] | IC50 [5] [nM] | IC50 [6] [nM] | Activity (C2C12 [7]) [%] | inhibition [8] [%] | inhibition [9] [%] | inhibition [10] [%] | also measured |
| --- | --- | --- | --- | --- | --- | --- | --- | --- | --- | --- | --- | --- |
| Cc1nc(NC(=O)N2CCC[C@H]2C(N)=O)sc1-c1ccnc(C(C)(C)C(F)(F)F)c1 | Active | – | – | – | – | – | – | – | – | – | – | – |
| Nc1nc2ccc(F)cc2c2nc(-c3ccco3)nn12 | Active | Active | – | – | – | – | – | – | – | – | – | – |
| Nc1nc2ccc(O)cc2c2nc(-c3ccco3)nn12 | – | Active | 79 | 11 | 3640 | 6180 | > 10000 | 184 | 0 | 72 | 29 | – |
| Fc1cccc(-n2cnc3c(NCc4nc5c(F)c(F)ccc5[nH]4)nc(N4CCOCC4)nc32)c1 | – | – | – | – | – | – | – | – | – | – | – | Activity (C2C12 [11]): Dde; Activity (C2C12 [12]): Dde |
| Nc1nc2ccc(Br)cc2c2nc(-c3ccco3)nn12 | Active | Active | 93 | 75 | 120 | 220 | 380 | 554 | 27 | 80 | 6 | – |
| Nc1nc2ccc(Cl)cc2c2nc(-c3ccco3)nn12 [CGS-15943] | Active | Active | 96 | 34 | 240 | 820 | 490 | 290 | 39 | 86 | 5 | IC50 [13]: 970 nM; IC50 [14]: 500 nM; IC50 [15]: 8.48 µM; IC50 [16]: 110 nM; IC50 [17]: 1280 nM; IC50 [18]: 140 nM |
| Nc1ccc2nc(N)n3nc(-c4ccco4)nc3c2c1 | – | Active | – | – | – | – | – | – | – | – | – | – |
| CC(=O)/N=c1/[nH]c(C)c(-c2ccc(Cl)c(S(=O)(=O)NCCO)c2)s1 | Active | – | – | – | – | – | – | – | – | – | – | – |
| Nc1nc2ccc(Cl)cc2c2nc(-c3ncco3)nn12 | Active | Active | 91 | 79 | 430 | 2920 | 2070 | 166 | 29 | 82 | 10 | – |
| Nc1nc2ccccc2c2nc(-c3ccco3)nn12 | Active | Active | – | – | – | – | – | – | – | – | – | – |
